Test results published in patent US10471088B2 (GNOSIS SPA, priority 2006, dated 2019).
Where “and” joins values, the source holds several entries; their conditions need not be identical. Identical values can stand only once.

Assays:
[1] = Accelerated stability (stress test 5 days at 53° C.) of starting material lots prior to / after mixing with calcium oxide; type: physicochemical; settings: for Moisture content % K.F. (stress test) / Total impurities % (stress test) / % S,S (stress test) / SAMe titre % (stress test): 5 days at 53° C.; for permanent removal of the moisture content: mixture with calcium oxide after the stress test at 53° C. for 5 days
[2] = Analysis of starting material lots (SAMe salts, NADH) prior to / after mixing with calcium oxide, t = 0 and storage at 20° C. for 21 days; type: physicochemical; settings: for permanent removal of the moisture content: mixture with calcium oxide stored for 21 days at 20° C.; for residual moisture content: starting material
[3] = after mixing with calcium oxide
[4] = prior to mixing with calcium oxide

Row | Compound | Moisture content % K.F. (stress test) [1, 3] | Total impurities % (stress test) [1, 3] | permanent removal of the moisture content [1] | Moisture content % K.F. (stress test) [1, 4] | Total impurities % (stress test) [1, 4] | Moisture content % K.F. t = 0 [2, 3] | Moisture content % K.F. t = 21 days at 20° C. [2, 3] | permanent removal of the moisture content [2] | Moisture content % K.F. t = 0 [2, 4] | Moisture content % K.F. t = 21 days at 20° C. [2, 4] | residual moisture content [2] | % S,S (stress test) [1, 3] | SAMe titre % (stress test) [1, 3] | % S,S (stress test) [1, 4] | SAMe titre % (stress test) [1, 4] | % S,S t = 0 [2, 3] | SAMe titre % t = 0 [2, 3] | Total impurities % t = 0 [2, 3] | % S,S t = 0 [2, 4] | SAMe titre % t = 0 [2, 4] | also measured
1 | NC(=O)C1=CN([C@@H]2O[C@H](COP(=O)(O)OP(=O)(O)OC[C@H]3O[C@@H](n4cnc5c(N)ncnc54)[C@H](O)[C@@H]3O)[C@@H](O)[C@H]2O)C=CC1 [NADH] | 3.23% and 3.54% and 3.10% and 3.49% and 3.45% | 2.67% and 3.14% and 3.02% and 2.45% and 3.54% | approximately 60% | 6.23% and 6.54% and 5.00% and 6.09% and 6.05% | 8.55% and 7.34% and 7.02% and 7.17% and 7.54% | 6.44% and 7.23% and 6.87% and 6.21% and 6.33% | 4.01% and 4.39% and 3.98% and 3.20% and 4.32% | approximately 40% | 6.66% and 7.09% and 5.94% and 6.45% and 6.38% | 6.34% and 6.87% and 5.76% and 6.32% | 5-7 % K.F. |  |  |  |  |  |  |  |  |  | NADH (sodium salt) titre % t = 0 (stress test) [1, 3]: 80.56% and 82.56% and 82.49% and 81.19% and 82.34%; NADH (sodium salt) titre % t = 0 (stress test) [1, 4]: 83.11% and 84.58% and 83.99% and 82.19% and 83.84%; NADH (sodium salt) titre % t = 0 ([2]; after mixing with 10% of calcium oxide): 83.93 (*) % and 84.23 (*) % and 83.95 (*) % and 84.53 (*) % and 85.32 (*) %; NADH (sodium salt) titre % t = 0 [2, 4]: 92.73% and 92.23% and 92.45% and 92.43% and 91.98%
2 | C[S+](CC[C@H](N)C(=O)O)C[C@H]1O[C@@H](n2cnc3c(N)ncnc32)[C@H](O)[C@@H]1O.Cc1ccc(S(=O)(=O)[O-])cc1 (some centres unmarked) [S-adenosyl methionine paratoluene sulphonate] | 0.35% and 0.38% and 0.43% and 0.41% and 0.39% | 2.89% and 3.02% and 3.17% and 2.78% and 2.65% | approximately 60% | 0.99% and 1.00% and 1.09% and 1.05% and 1.03% | 4.34% and 5.02% and 5.17% and 5.54% and 4.55% | 1.04% and 0.95% and 0.98% and 1.16% and 1.00% | 0.59% and 0.61% and 0.63% and 0.55% and 0.70% | approximately 40% | 1.09% and 1.04% and 1.15% and 1.08% and 1.06% | 1.09% and 1.12% and 1.13% and 1.05% and 1.03% |  | 65.79% and 67.25% and 66.47% and 65.43% and 66.56% | 49.98% and 49.87% and 50.09% and 50.00% and 49.81% | 55.79% and 55.28% and 56.21% and 56.31% and 56.12% | 49.58% and 49.99% and 51.19% and 50.84% and 50.11% | 79.99% and 81.23% and 80.67% and 80.32% and 80.11% | 50.23% and 50.19% and 50.22% and 50.02% and 50.16% | 0.94% and 1.04% and 0.66% and 0.73% and 1.03% | 79.82% and 81.54% and 80.87% and 80.02% and 80.21% | 52.23% and 52.29% and 52.96% and 51.98% and 52.76% | Total impurities % t = 0 [2, 4]: 0.94% and 1.04% and 0.66% and 0.73% and 1.03%
3 | C[S+](CC[C@H](N)C(=O)[O-])C[C@H]1O[C@@H](n2cnc3c(N)ncnc32)[C@H](O)[C@@H]1O (some centres unmarked) [SAMe, S-adenosyl methionine] |  |  |  |  |  |  |  |  |  |  | 1-1.5 % K.F. |  |  |  |  |  |  |  |  |  | 
4 | S-adenosyl methionine-1,4-butene disulphonate | 0.81% and 0.88% and 0.78% and 0.87% and 0.93% | 2.13% and 1.35% and 2.03% and 1.98% and 2.00% | approximately 60% | 1.96% and 1.93% and 2.09% and 2.21% and 2.00% | 4.63% and 4.47% and 4.06% and 4.23% and 4.05% | 1.80% and 1.84% and 1.94% and 1.89% and 1.87% | 1.38% and 1.40% and 1.33% and 1.45% and 1.27% | approximately 40% | 1.89% and 1.94% and 2.03% and 2.01% and 1.98% | 1.99% and 2.02% and 2.03% and 2.31% |  | 71.89% and 70.94% and 70.34% and 70.02% and 71.32% | 50.04% and 50.00% and 50.01% and 49.89% | 59.49% and 58.98% and 59.43% and 60.02% and 60.32% | 51.72% and 50.79% and 50.94% and 50.93% and 51.03% | 84.54% and 85.25% and 84.21% and 85.02% and 83.49% | 50.34% and 50.08% and 50.01% and 49.78% and 50.12% | 0.57% and 0.53% and 0.49% and 0.50% | 84.82% and 85.34% and 84.58% and 83.89% | 52.02% and 51.78% and 51.34% and 51.54% and 52.34% | Total impurities % t = 0 [2, 4]: 0.67% and 0.64% and 0.44% and 0.56% and 0.45%
